SMILES strings stand for the structures.

In the experiment the target is T1, PI3Kα H1047R in T47D cells (Homo sapiens, UniProt P42336, H1047R).
T1 construct: endogenous in cells; host or cells: T47D
The experiment in a line: PI3Kα cellular assay: T47D pAKT S473 HTRF. Conditions: for T47D pAKT S473 HTRF IC50 (H1047R): T47D (H1047R) selectivity over SKBR3 (WT): T47D (H1047R) versus SKBR3 (WT) cells; for IC50: T47D cells (H1047R), serum starved, 1 hr compound, 20 ng/ml EGF 10 min. The experiment is classed as cell-based. The procedure:
PI3Kα cellular assay experimental procedure: SKBR3 or T47D cells are seeded in DMEM containing 10% FBS at 25 k cells/well into 96-well cell culture format. Cells are incubated overnight at 37° C. in a 5% CO2 incubator and the following day cell media is aspirated, adherent cells are washed 1× with room temperature PBS prior to serum-free media application. Cells are returned to 37° C. 5% CO2 incubator and incubated a further 16 hrs. Compounds are added to serum starved adherent cells with a top dose of 10,000 nM and 3× multiple dose reductions for a minimum dose of 0.5 nM diluted in DMSO. Cell/compound incubation continues for 1 hr in a 37° C., 5% CO2 incubator prior to 10 minute PIK3CA stimulation with 20 ng/ml EGF. Cells treated with 0.1% DMSO and 20 ng/mL EGF are employed as negative control, cells treated with 10 uM Alpelisib and 20 ng/mL EGF are employed as a positive control. After 10 mins, plates are removed from incubator and cells are lysed with buffer and shaking 45 minutes. 20 μL of lysate is transferred to an opti-384 plate and 2.5 μl of Phospho-AKT d2 antibody with 2.5 μl of Phospho-AKT Eu Cryptate solution in the detection buffer are added to each well. 384 well plate is left overnight at room temperature before reading HTRF on an Envision plate reader.

T1 sequence (P42336 whole entry H1047R): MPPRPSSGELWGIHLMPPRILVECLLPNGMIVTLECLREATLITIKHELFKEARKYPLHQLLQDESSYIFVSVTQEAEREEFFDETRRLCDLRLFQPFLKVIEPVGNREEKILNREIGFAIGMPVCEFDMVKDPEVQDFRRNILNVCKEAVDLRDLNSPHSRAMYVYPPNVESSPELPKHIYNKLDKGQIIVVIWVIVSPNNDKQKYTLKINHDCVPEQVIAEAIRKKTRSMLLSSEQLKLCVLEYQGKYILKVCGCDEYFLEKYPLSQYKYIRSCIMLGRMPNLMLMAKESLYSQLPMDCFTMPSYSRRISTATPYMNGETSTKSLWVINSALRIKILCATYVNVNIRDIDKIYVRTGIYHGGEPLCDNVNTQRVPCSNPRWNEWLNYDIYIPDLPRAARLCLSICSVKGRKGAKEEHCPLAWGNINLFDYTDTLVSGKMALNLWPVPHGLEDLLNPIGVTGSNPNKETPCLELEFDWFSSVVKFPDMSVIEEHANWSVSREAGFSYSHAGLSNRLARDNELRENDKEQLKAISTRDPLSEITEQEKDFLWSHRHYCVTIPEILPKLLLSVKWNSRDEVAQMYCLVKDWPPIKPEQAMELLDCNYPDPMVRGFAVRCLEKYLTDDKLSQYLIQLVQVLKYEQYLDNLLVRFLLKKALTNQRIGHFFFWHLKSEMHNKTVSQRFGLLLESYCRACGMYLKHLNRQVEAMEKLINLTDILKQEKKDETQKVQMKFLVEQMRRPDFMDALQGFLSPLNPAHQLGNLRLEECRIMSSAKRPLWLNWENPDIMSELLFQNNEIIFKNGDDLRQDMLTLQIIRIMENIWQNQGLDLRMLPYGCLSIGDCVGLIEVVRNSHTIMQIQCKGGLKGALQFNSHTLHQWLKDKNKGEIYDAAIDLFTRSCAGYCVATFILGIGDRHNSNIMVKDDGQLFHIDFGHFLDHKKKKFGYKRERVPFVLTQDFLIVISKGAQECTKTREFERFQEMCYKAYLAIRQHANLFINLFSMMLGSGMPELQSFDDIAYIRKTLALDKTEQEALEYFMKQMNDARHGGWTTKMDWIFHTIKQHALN
T1 sequence (P27986 whole entry partner): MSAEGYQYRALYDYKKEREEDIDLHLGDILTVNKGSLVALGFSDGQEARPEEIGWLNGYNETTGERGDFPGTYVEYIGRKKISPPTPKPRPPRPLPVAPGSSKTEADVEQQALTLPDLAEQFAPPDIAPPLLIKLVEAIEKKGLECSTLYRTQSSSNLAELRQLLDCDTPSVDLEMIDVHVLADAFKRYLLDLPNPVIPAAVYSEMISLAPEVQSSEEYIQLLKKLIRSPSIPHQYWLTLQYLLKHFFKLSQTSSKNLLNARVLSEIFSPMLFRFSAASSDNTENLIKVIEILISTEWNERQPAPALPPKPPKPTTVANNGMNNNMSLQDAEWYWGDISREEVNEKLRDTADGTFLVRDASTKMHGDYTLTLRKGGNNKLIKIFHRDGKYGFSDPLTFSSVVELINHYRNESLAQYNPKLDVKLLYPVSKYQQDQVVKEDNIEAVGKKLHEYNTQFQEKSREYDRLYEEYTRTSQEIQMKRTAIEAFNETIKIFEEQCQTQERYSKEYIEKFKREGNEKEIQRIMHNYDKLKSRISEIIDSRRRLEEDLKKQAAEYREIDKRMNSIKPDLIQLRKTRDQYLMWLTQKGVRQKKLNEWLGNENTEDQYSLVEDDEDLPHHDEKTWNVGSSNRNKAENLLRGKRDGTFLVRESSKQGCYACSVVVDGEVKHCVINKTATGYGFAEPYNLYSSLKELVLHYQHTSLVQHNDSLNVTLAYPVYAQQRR

`CCOc1nc(N2Cc3ccccc3C2)nc2c([C@@H](C)Nc3ccccc3C(=O)O)cc(C)cc12` [Compound 147]: the “T47D pAKT S473 HTRF IC50 (H1047R): T47D (H1047R) selectivity over SKBR3 (WT)” value is listed as “C (C denotes ≤5-fold)” and the IC50 is no less than 2000 nM.
As for `Cc1cc([C@@H](C)Nc2ccccc2C(=O)O)c2[nH]c(N3CCOCC3)nc(=O)c2c1` [Compound 18], the “T47D pAKT S473 HTRF IC50 (H1047R): T47D (H1047R) selectivity over SKBR3 (WT)” value is “C (C denotes ≤5-fold)” and the half-maximal inhibitory concentration (IC50) is no less than 2000 nM.
Turning to `Cc1cc(C(C)Nc2ccccc2C(=O)O)c2nc(N3CCC(C)(C)CC3)nc(C(N)=O)c2c1` (stereo not drawn) [Compound 23], the “T47D pAKT S473 HTRF IC50 (H1047R): T47D (H1047R) selectivity over SKBR3 (WT)” value is given as “C (C denotes ≤5-fold)” and the IC50 was no less than 2000 nM.
The matching figures for `Cc1cc(C(C)Nc2ccccc2C(=O)O)c2cc(N3Cc4ccccc4C3)ncc2c1` (stereo not drawn) [Compound 59]: “B (B denotes 20-fold≥value>5-fold)” and 750 to 2000 nM.
Taken in the same sequence, the figures for `Cc1cc([C@@H](C)Nc2ccccc2C(=O)O)c2nc(-c3ccc(C)nc3)n(C)c(=O)c2c1` [Compound 135] were “A (A denotes >20-fold)” and less than 750 nM.
The matching figures for `Cc1cc(C(C)Nc2ccccc2C(=O)O)c2nc(-c3ccc(C4CC4)nc3)n(C)c(=O)c2c1` (stereo not drawn) [Compound 136]: “A (A denotes >20-fold)” and less than 750 nM.
Regarding `Cc1cc([C@@H](C)Nc2ccccc2C(=O)O)c2nc(-c3ccnc(C4CC4)c3)n(C)c(=O)c2c1` [Compound 145], the “T47D pAKT S473 HTRF IC50 (H1047R): T47D (H1047R) selectivity over SKBR3 (WT)” value is reported as “B (B denotes 20-fold≥value>5-fold)” and the IC50 is less than 750 nM.
`Cc1cc(C(C)Nc2ccccc2C(=O)O)c2nc(N3Cc4ccccc4C3)nc(C(N)=O)c2c1` (stereo not drawn) [Compound 24]: the “T47D pAKT S473 HTRF IC50 (H1047R): T47D (H1047R) selectivity over SKBR3 (WT)” value is on record as “A (A denotes >20-fold)” and the 50% inhibitory concentration (IC50) is less than 750 nM.
The matching figures for `Cc1cc([C@@H](C)Nc2ccccc2C(=O)O)c2nc(-c3cccnc3)n(C)c(=O)c2c1` [Compound 137]: “A (A denotes >20-fold)” and less than 750 nM.
Taken in the same sequence, the figures for `Cc1cc([C@@H](C)Nc2ccccc2C(=O)O)c2nc(N3Cc4ccccc4C3)[nH]c(=O)c2c1` [Compound 4] were “C (C denotes ≤5-fold)” and no less than 2000 nM.
Take `Cc1cc(C(C)Nc2ccccc2C(=O)O)c2nc(N3Cc4ccccc4C3)ccc2c1` (stereo not drawn) [Compound 30]: the “T47D pAKT S473 HTRF IC50 (H1047R): T47D (H1047R) selectivity over SKBR3 (WT)” value is “B (B denotes 20-fold≥value>5-fold)” and the IC50 is 750 to 2000 nM.
As for `Cc1cc(C(C)Nc2ccccc2C(=O)O)c2nc(N3Cc4ccccc4C3)[nH]c(=O)c2c1` (stereo not drawn) [Compound 6], the “T47D pAKT S473 HTRF IC50 (H1047R): T47D (H1047R) selectivity over SKBR3 (WT)” value is on record as “C (C denotes ≤5-fold)” and the IC50 is no less than 2000 nM.
In the case of `Cc1cc([C@H](C)Nc2ccccc2C(=O)O)c2nc(N3Cc4ccccc4C3)nc(N3CC(O)C3)c2c1` [Compound 144], the “T47D pAKT S473 HTRF IC50 (H1047R): T47D (H1047R) selectivity over SKBR3 (WT)” value is listed as “B (B denotes 20-fold≥value>5-fold)” and the IC50 was 750 to 2000 nM.
Turning to `Cc1cc([C@@H](C)Nc2ccccc2C(=O)O)c2nc(-c3ccnc(C#N)c3)n(C)c(=O)c2c1` [Compound 143], the “T47D pAKT S473 HTRF IC50 (H1047R): T47D (H1047R) selectivity over SKBR3 (WT)” value is listed as “A (A denotes >20-fold)” and the IC50 is less than 750 nM.
As to `Cc1cc([C@H](C)Nc2ccccc2C(=O)O)c2nc(N3CCC(C)(C)CC3)nc(O)c2c1` [Compound 11], the “T47D pAKT S473 HTRF IC50 (H1047R): T47D (H1047R) selectivity over SKBR3 (WT)” value is on record as “B (B denotes 20-fold≥value>5-fold)” and the half-maximal inhibitory concentration (IC50) fell in the range of 750 to 2000 nM.
With `Cc1cc([C@@H](C)Nc2ccccc2C(=O)O)c2nc(N3Cc4ccccc4C3)nc(OC3COC3)c2c1` [Compound 146], the “T47D pAKT S473 HTRF IC50 (H1047R): T47D (H1047R) selectivity over SKBR3 (WT)” value is “A (A denotes >20-fold)” and the half-inhibitory concentration (IC50) is less than 750 nM.
Taken in the same sequence, the figures for `Cc1cc([C@H](C)Nc2ccccc2C(=O)O)c2nc(N3CCC(C)(C)CC3)nc(N)c2c1` [Compound 1] were “C (C denotes ≤5-fold)” and no less than 2000 nM.
Taken in the same sequence, the figures for `Cc1cc([C@@H](C)Nc2ccccc2S(N)(=O)=O)c2nc(-c3cccnc3)n(C)c(=O)c2c1` [Compound 142] were “A (A denotes >20-fold)” and less than 750 nM.
Taken in the same sequence, the figures for `Cc1cc(C(C)Nc2ccccc2C(=O)O)c2nc(N3CCC(C)(C)CC3)nc(N)c2c1` (stereo not drawn) [Compound 3] were “C (C denotes ≤5-fold)” and no less than 2000 nM.
For `Cc1cc(C(C)Nc2ccccc2C(=O)O)c2nc(N3CCC(C)(C)CC3)nc(NC(=O)CCl)c2c1` (stereo not drawn) [Compound 21], the “T47D pAKT S473 HTRF IC50 (H1047R): T47D (H1047R) selectivity over SKBR3 (WT)” value is recorded as “C (C denotes ≤5-fold)” and the IC50 was no less than 2000 nM.
Turning to `Cc1cc(C(C)Nc2ccccc2C(=O)O)c2nc(N3Cc4ccccc4C3)nc(N3CC(O)C3)c2c1` (stereo not drawn) [Compound 63, 2-((1-(4-(3-hydroxyazetidin-1-yl)-2-(isoindolin-2-yl)-6-methylquinazolin-8-yl)ethyl)amino)benzoic acid], the “T47D pAKT S473 HTRF IC50 (H1047R): T47D (H1047R) selectivity over SKBR3 (WT)” value is listed as “B (B denotes 20-fold≥value>5-fold)” and the IC50 lay in the range of 750 to 2000 nM.
In the case of `Cc1cc([C@@H](C)Nc2ccccc2C(N)=O)c2nc(-c3cccnc3)n(C)c(=O)c2c1` [Compound 141], the “T47D pAKT S473 HTRF IC50 (H1047R): T47D (H1047R) selectivity over SKBR3 (WT)” value is “B (B denotes 20-fold≥value>5-fold)” and the IC50 was less than 750 nM.
As to `Cc1cc([C@@H](C)Nc2ccccc2C(=O)O)c2cc(-c3ccc4c(c3)c(C)nn4C)n(C)c(=O)c2c1` [Compound 86], the “T47D pAKT S473 HTRF IC50 (H1047R): T47D (H1047R) selectivity over SKBR3 (WT)” value is “A (A denotes >20-fold)” and the IC50 was less than 750 nM.
Taken in the same sequence, the figures for `Cc1cc([C@@H](C)Nc2ccccc2C(=O)O)c2nc(N3CCC(C)(C)CC3)nc(N)c2c1` [Compound 2] were “C (C denotes ≤5-fold)” and no less than 2000 nM.
For the molecule `Cc1cc([C@@H](C)Nc2ccccc2C(=O)O)c2nc(N3Cc4ccccc4C3)ncc2c1` [Compound 35], the “T47D pAKT S473 HTRF IC50 (H1047R): T47D (H1047R) selectivity over SKBR3 (WT)” value was “C (C denotes ≤5-fold)” and the IC50 was no less than 2000 nM.
The matching figures for `Cc1cc(C(C)Nc2ccccc2C(=O)O)c2nc(-c3ccc4c(c3)c(C)cn4C)n(C)c(=O)c2c1` (stereo not drawn) [Compound 133]: “A (A denotes >20-fold)” and less than 750 nM.
Taken in the same sequence, the figures for `Cc1cc([C@H](C)Nc2ccccc2C(=O)O)c2nc(-c3ccc(F)cc3)n(C)c(=O)c2c1` [Compound 39] were “C (C denotes ≤5-fold)” and no less than 2000 nM.
With `Cc1cc([C@@H](C)Nc2ccccc2C(=O)O)c2nc(-c3cnc(C)c(Cl)c3)n(C)c(=O)c2c1` [Compound 140], the “T47D pAKT S473 HTRF IC50 (H1047R): T47D (H1047R) selectivity over SKBR3 (WT)” value was “B (B denotes 20-fold≥value>5-fold)” and the IC50 was less than 750 nM.
Taken in the same sequence, the figures for `Cc1cc([C@@H](C)Nc2ccccc2C(=O)O)c2nc(-c3ccc(C#N)nc3)n(C)c(=O)c2c1` [Compound 138] were “A (A denotes >20-fold)” and less than 750 nM.
The matching figures for `Cc1cc(C(C)Nc2ccccc2C(=O)O)c2nc(N3Cc4ccccc4C3)nc(C3CC3O)c2c1` (stereo not drawn) [Compound 69]: “B (B denotes 20-fold≥value>5-fold)” and 750 to 2000 nM.

Values taken from patent US20260130925A1, “METHODS FOR TREATING CANCER” (Genesis Molecular AI, Inc., priority 2022, published 2026).
